# Data as given in patent US7361643B2, “Methods for inhibiting angiogenesis” (University of Puerto Rico, priority 2000, dated 2008).
# Entries after “also recorded” stand apart in the source; their conditions may differ.
# System: bovine adrenal medullary microvascular endothelial cells
# Test: Morphology by light microscopy and scanning electron microscopy
# Type: cell-based
# Conditions: 1 μg/ml tunicamycin, 2% (v/v) FBS
# Description: The synchronized population of the above described bovine capillary endothelial cells was exposed to tunicamycin (lot number 10922120-07 from Boehringer-Mannheim, Indianapolis, Ind.) with no history of protein synthesis inhibition, for different lengths of time at various concentrations, as shown, e.g., in FIG. 3, in a complete EMEM containing 2% (v/v) fetal bovine serum (FBS) (heat-inactivated) at 37° C. to evaluate the morphological changes. The cells were monitored by phase-contrast light microscopy as well as by scanning electron microscopy.
# For scanning electron microscopy, 5×10^3 cells were cultured on 13 mm round Thermanox coverslips in 12 well clusters (COSTAR) in complete EMEM. Cells were synchronized as mentioned above and cultured in EMEM containing either 2% (v/v) FBS (control), 10% (v/v) FBS or 2% (v/v) FBS plus 1 μg/ml tunicamycin. The coverslips were removed at specified times and the cells were fixed in 2.5% (v/v) glutaraldehyde for 30 minutes. The cells were washed three times (10 minutes each) with Millonigs (1961) isotonic phosphate buffer, pH 7.3, and treated with 1% (w/v) osmium tetroxide for 15 minutes. See MILLONIG, “Advantages of a Phosphate Buffer for Osmium Tetroxide Solutions in Fixation”, J. Appl. Physics, 32:1637 (1961), the disclosure of which is herein incorporated by reference in its entirety. […]
substance,measurement,setting,value
tunicamycin,morphology by light microscopy,,"cell shrinkage, loss of membrane contact with neighboring cells, apparent compaction of nuclei showing condensed pyknotic appearance and membrane fragmentation; also recorded: cell shrinkage, loss of membrane contact with neighboring cells, apparent compaction of nuclei showing condensed pyknotic appearance, and membrane fragmentation"
same,surface morphology by scanning electron microscopy,96 hours,considerable surface blebbing; also recorded: enormous surface blebbing
